Data on one compound can be found in patent publication US12077503B2, “Substituted cyclic amides and their use as herbicides” (FMC CORPORATION, priority 2015, dated 2024).

Assay type in all cases: in vivo
In test [1] the test system is Kochia (Kochia scoparia). Put plainly: Test A preemergence. The conditions noted are these: Bassia scoparia, pre-emergence, 240 h, preemergence, read-out: Plant response rating, Kochia. Summed up:
(§1)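 Preemergence directed soil spray on seeded pots, or postemergence application to plants 2–10 cm, one- to two-leaf. Solvent mixture non-phytotoxic, with surfactant. Scored ~10 d later, visually, 0–100 vs untreated.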

Test [2] has as its system barnyardgrass (Echinochloa crus-galli). Description: Test A preemergence. The following applies: Echinochloa crus-galli, pre-emergence, 240 h, preemergence, read-out: Plant response rating, Barnyardgrass. Summed up: as §1
The subject of test [3] is giant foxtail (Setaria faberii). Description: Test A preemergence. The conditions noted are these: Setaria faberi, pre-emergence, 240 h, preemergence, read-out: Plant response rating, Foxtail, Giant. An outline of the steps: as §1
The subject of test [4] is pigweed (Amaranthus retroflexus). Description: Test A preemergence. The conditions noted are these: Amaranthus retroflexus, pre-emergence, 240 h, preemergence, read-out: Plant response rating, Pigweed.
Test [5] concerns ragweed (common ragweed, Ambrosia elatior). Description: Test A preemergence. The following applies: Ambrosia artemisiifolia, pre-emergence, 240 h, preemergence, read-out: Plant response rating, Ragweed. Summed up: as §1
In test [6] the test system is ryegrass, Italian (Italian ryegrass, Lolium multiflorum). Description: Test A preemergence. The conditions noted are these: Lolium multiflorum, pre-emergence, 240 h, preemergence, read-out: Plant response rating, Ryegrass, Italian. Summed up: as §1
Test [7] has as its system Galium (catchweed bedstraw, Galium aparine). Description: Test A postemergence. The conditions noted are these: Galium, post-emergence, 240 h, 125 g ai/ha, postemergence; visual injury after approximately 10 d; 0 to 100 scale (0 no effect, 100 complete control); read-out: Plant response rating, Galium. An outline of the steps:
as §1

The test system of test [8] is Kochia (Kochia scoparia). Description: Test A postemergence. The following applies: Bassia scoparia, post-emergence, 240 h, 125 g ai/ha, postemergence; visual injury after approximately 10 d; 0 to 100 scale (0 no effect, 100 complete control); read-out: Plant response rating, Kochia. An outline of the steps:
as §1

Test [9] deals with barnyardgrass (Echinochloa crus-galli). Description: Test A postemergence. The following applies: Echinochloa crus-galli, post-emergence, 240 h, 125 g ai/ha, postemergence; visual injury after approximately 10 d; 0 to 100 scale (0 no effect, 100 complete control); read-out: Plant response rating, Barnyardgrass. Summed up:
as §1

Test [10] has as its system blackgrass (Alopecurus myosuroides). Put plainly: Test A postemergence. The conditions noted are these: Alopecurus myosuroides, post-emergence, 240 h, 125 g ai/ha, postemergence; visual injury after approximately 10 d; 0 to 100 scale (0 no effect, 100 complete control); read-out: Plant response rating, Blackgrass. Summed up: as §1
A further test relates to corn (Zea mays). Description: Test A postemergence. The conditions noted are these: Zea mays, post-emergence, 240 h, 125 g ai/ha, postemergence; visual injury after approximately 10 d; 0 to 100 scale (0 no effect, 100 complete control). An outline of the steps: as §1
For test [11], the system named is giant foxtail (Setaria faberii). Description: Test A postemergence. The conditions noted are these: Setaria faberi, post-emergence, 240 h, 125 g ai/ha, postemergence; visual injury after approximately 10 d; 0 to 100 scale (0 no effect, 100 complete control); read-out: Plant response rating, Foxtail, Giant. An outline of the steps: as §1
For test [12], the system named is pigweed (Amaranthus retroflexus). Description: Test A postemergence. The following applies: Amaranthus retroflexus, post-emergence, 240 h, 125 g ai/ha, postemergence; visual injury after approximately 10 d; 0 to 100 scale (0 no effect, 100 complete control); read-out: Plant response rating, Pigweed. An outline of the steps: as §1
In test [13] the test system is ragweed (common ragweed, Ambrosia elatior). Description: Test A postemergence. The conditions noted are these: Ambrosia artemisiifolia, post-emergence, 240 h, 125 g ai/ha, postemergence; visual injury after approximately 10 d; 0 to 100 scale (0 no effect, 100 complete control); read-out: Plant response rating, Ragweed. Summed up:
as §1

The subject of test [14] is ryegrass, Italian (Italian ryegrass, Lolium multiflorum). Put plainly: Test A postemergence. The conditions noted are these: Lolium multiflorum, post-emergence, 240 h, 125 g ai/ha, postemergence; visual injury after approximately 10 d; 0 to 100 scale (0 no effect, 100 complete control); read-out: Plant response rating, Ryegrass, Italian. Summed up:
as §1

Test [15] concerns wheat (Triticum aestivum). Put plainly: Test A postemergence. The conditions noted are these: Triticum aestivum, post-emergence, 240 h, 125 g ai/ha, postemergence; visual injury after approximately 10 d; 0 to 100 scale (0 no effect, 100 complete control); read-out: Plant response rating, Wheat. An outline of the steps: as §1
[16] abbreviates: 125 g ai/ha, visual rating after approx. 10 d, 0 to 100 scale where 0 is no effect and 100 is complete control.
The mark [17] stands for this setting: 500 g ai/ha, 0 to 100 scale, 0 = no effect, 100 = complete control.

On to `Cc1ccc([C@H]2CN(C)C(=O)[C@@H]2C(=O)Nc2cccc(F)c2C)cc1C` [Compound 732], for which the pest or weed control at 125 g/ha in the test on Kochia (Kochia scoparia) [1] (setting [16]) was determined as 70%; in [2] (setting [16]) it was 90%; in [3] (setting [16]) it was 90%; in test [4] (setting [16]), 0%; in [5] (setting [16]), 0%; in [6] (setting [16]), 80%. For the same compound, the pest or weed control at 125 g/ha was 30% in [7]; 20% with Kochia (Kochia scoparia) [8]; 90% in test [9]; 50% in test [10]; 90% in test [11]; 0% in [12]. In addition, the pest or weed control at 125 g/ha in test [13] was 0%; in test [14], 50%. The pest or weed control at 500 g/ha was found to be 90% with Kochia (Kochia scoparia) [1] (setting [17]); 100% in test [2] (setting [17]); 90% in test [3] (setting [17]); 20% in test [4] (setting [17]); 70% in test [5] (setting [17]); 80% in [6] (setting [17]). The compound also had a Corn plant response rating (crop injury, 0 = no effect, 100 = complete kill) at 125 g/ha in the test on corn (Zea mays) of 70%. For the same compound, the plant injury at 125 g/ha in test [15] is 80%.
